Reference: paper PMC12491715 (Acta Pharmaceutica Sinica. B, 2025)
Where “and” joins values, the source holds several entries; their conditions need not be identical. Identical values can stand only once. Like-named read-outs stand apart in the source and are kept apart here.

Target: T1, AChE (Mus musculus, UniProt P21836)
T1 construct: from tissue; host or cells: mouse serum (C57BL/6JRccHsd)
T1 sequence (P21836 32-614): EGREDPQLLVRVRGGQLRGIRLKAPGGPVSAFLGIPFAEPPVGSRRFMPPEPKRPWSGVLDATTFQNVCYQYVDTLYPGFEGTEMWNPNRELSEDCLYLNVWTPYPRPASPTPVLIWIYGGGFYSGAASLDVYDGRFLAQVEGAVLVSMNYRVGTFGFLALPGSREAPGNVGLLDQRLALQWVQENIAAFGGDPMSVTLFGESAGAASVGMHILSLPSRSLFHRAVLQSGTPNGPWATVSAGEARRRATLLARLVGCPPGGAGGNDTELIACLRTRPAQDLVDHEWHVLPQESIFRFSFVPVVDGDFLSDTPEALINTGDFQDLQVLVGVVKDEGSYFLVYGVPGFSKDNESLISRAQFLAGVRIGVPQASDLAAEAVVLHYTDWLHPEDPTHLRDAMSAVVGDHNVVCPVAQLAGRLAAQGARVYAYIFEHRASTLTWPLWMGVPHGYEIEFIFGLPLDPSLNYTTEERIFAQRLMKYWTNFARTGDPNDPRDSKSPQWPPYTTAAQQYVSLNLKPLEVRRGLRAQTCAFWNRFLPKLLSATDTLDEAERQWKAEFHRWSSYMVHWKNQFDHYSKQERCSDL
Test: Cholinesterase inhibition upon repeated dosing, serum AChE
Assay type: in vivo, C57BL/6JRccHsd mice
Text: The 12 mice used in this pilot study were 9–14 months old male wild-type C57BL/6JRccHsd mice bred in the Laboratory of Animal Genomics at the Faculty of Veterinary Medicine, University of Ljubljana, or purchased from Envigo RMS Holding Corp. Mice were conventionally bred in open polycarbonate cages (Tecniplast, Buguggiate, Italy) and provided with wood chip bedding (Lignocel®, Rettenmaier and Sons, Germany). Mice were kept under standard conditions, including a 12:12 dark–light cycle (LED, CCT 3000 k, with no more than 25 lux above the cage), a temperature range of 21–24 °C, and humidity between 50%–60%. They were fed irradiated rodent diet (Teklad global 16% protein rodent diet®, BN 2916, Envigo, Udine, Italy) and had access to drinkable tap water ad libitum. Due to the nature of this pilot study, the mice were housed individually. The experimental design was evaluated by the National Ethics Committee for Animal Experiments and approved by the Veterinary Administration of the Republic of Slovenia (document no. U34401-10/2021/8, with amendments U34401-10/2021/13 and U34401-10/2021/1).
Before the start of study, blood was drawn from the submandibular vein (facial vein) of the animals under isoflurane inhalation anesthesia (Isoflurin®, VetPharma, Spain) using a 5 mm lancet (Goldenrod Animal Sterile, MEDIpoint, Inc., NY, USA), collected in a microtube (Eppendorf, Safe-Lock tube, 0.5 mL, Eppendorf AG, Germany) and allowed to clot. After approximately 1 h, the blood was centrifuged at 6000 × g for 15 min at 4 °C to obtain the sera, which were stored at –80 °C until analysis.
Seven animals received the 1 mg/kg dose of compound 8, and five animals received the 5 mg/kg dose of compound 8. Compound 8 was prepared as a stock solution in 100% MeCN (5 and 10 mg/mL) and kept refrigerated for the duration of the study. The dosages were prepared as follows: based on the animal’s body weight, a calculated volume of compound 8 stock solution was accurately pipetted onto a cubic piece (approx. 50 mg) of sterilized toast (Ölz multigrain toast, Rudolf Ölz Meisterbäcker GmbH & Co KG, Austria), and left to dry at room temperature for 5 min. Subsequently, 25 μL of 50% sucrose in distilled water were added at the same site to mask the bitter taste of compound 8. These dosage units were prepared twice a week during the study and stored in a closed glass petri dish at room temperature until use. […] Compound 8 was administered in this way for 27 days, eliminating the need for repeated handling and injection. The animals were observed daily for general activity level, hair coat quality or other abnormal behavior or clinical signs.
24 h after the last dose was administered, the mice were humanly euthanized under isoflurane inhalation anesthesia (Isoflurin®, VetPharma, Spain) and the blood was withdrawn from the left ventricle using a syringe, collected in a microtube (Eppendorf, Safe-Lock tube, 0.5 mL, Eppendorf AG, Germany) and allowed to clot. After approximately 1 h, the blood was centrifuged at 6000 × g for 15 min at 4 °C to obtain the sera, which were stored at –80 °C until analysis. […] Animal sera (5–10 μL) were diluted in 0.5 mmol/L DTNB in 0.1 mol/L sodium phosphate buffer pH 7.4 (total volume 1000 μL), substrate (5 μL of 100 mmol/L, final concentration 0.5 mmol/L) was added, and the increase in absorbance monitored for 3 min. BChE activity was determined using butyrylthiocholine iodide, while AChE activity was determined on isoOMPA-inhibited sera (buffer-diluted sera were preincubated for 25 min with 1 μL of 100 mmol/L isoOMPA–0.1 mmol/L final concentration) using acetylthiocholine iodide (final concentration 0.5 mmol/L). Measurements were performed in triplicate and pairwise compared before and after treatment for each subject (n = 5 per group).

With `CCN(CC)C(=O)n1cnc(C2(CC)Cc3ccccc3C2)c1` [Compound 8, N,N-Diethyl-4-(2-ethylindan-2-yl)-1H-imidazole-1-carboxamide] the “serum AChE activities at the end of treatment” value (1 or 5 mg/kg p.o. once a day for 4 weeks) was “unchanged”, the remaining activity at 1 mg/kg (mouse, po, serum, 1 mg/kg p.o. once a day, individual animals, after vs before treatment, read-out: AChE residual activity) was 91.2% and the remaining activity at 1 mg/kg (mouse, po, serum, 1 mg/kg p.o. once a day, read-out: AChE residual activity, AVERAGE) was 101%. The remaining activity at 5 mg/kg (mouse, po, serum, 5 mg/kg p.o. once a day, read-out: AChE residual activity, AVERAGE) was 91.2%, the AChE residual activity (serum, 1 mg/kg p.o. once a day, individual animals, after vs before treatment, 1 mg/kg) was 104.0%±9.7% and 107.1%±22.3% and the “AChE activity AFTER treatment” value (serum, 1 mg/kg p.o. once a day, individual animals, 1 mg/kg) was 0.9541±0.2227 U/mL and 1.0365±0.0653 U/mL and 0.8481±0.0324 U/mL. The AChE residual activity (serum, 5 mg/kg p.o. once a day, individual animals, after vs before treatment, 5 mg/kg) was 89.7%±14.6% and 63.0%±13.9% and 121.0%±17.4% and the “AChE activity AFTER treatment” value (serum, 5 mg/kg p.o. once a day, individual animals, 5 mg/kg) was 0.9258±0.0430 U/mL and 0.7420±0.1450 U/mL and 0.9517±0.0657 U/mL.
